Key:
[1] = Blood pharmacokinetics after single oral dose in C. rodentium colitis mice; assay type: in vivo, mouse; conditions: for Cmax: pCQ = total (polymer-bound + hydrolyzed) HCQ
Protocol: (§1) Male C57BL/6 mice (6 weeks old, 18-20 g) were obtained from Charles River Laboratories and used for all in vivo studies. All animal experiments were conducted according to the protocol approved by the University of Nebraska Medical Center Institutional Animal Care and Use Committee. C. rodentium was used to induce colitis in mice. Bacterial glycerol stock was streaked onto LB agar plates and the bacterial colonies were grown overnight at 37° C. A single colony was inoculated into 5 ml of 2% LB broth and incubated at 37° C., 280 rpm overnight to obtain a saturated primary culture. On the day of the experiment (Day 0), 2 ml of the primary culture was added into 300 ml of LB broth and the inoculum was placed on a shaker at 37° C. at 280 rpm for 6 hours. Bacterial optical density was measured at 600 nm. Bacteria were diluted with LB broth and delivered to mice (n=15) via oral gavage in a 100 μL volume containing 5×10^8 colony forming units (CFU). Healthy control group (n=5) was orally administered 100 μL of LB broth.
(§2) The pharmacokinetics and biodistribution of single dose pCQ was evaluated in a mouse model of IBD. Colitis was induced as described above and on day 14, mice were given a single dose of HCQ or pCQ in 200 μl of deionized water via oral gavage equivalent to 30 mg/kg HCQ. Blood was collected from the submandibular vein at 0.5, 1, 2, 4, 8, and 24 h post-administration. The animals were sacrificed, and organs harvested at 0.5, 2, 8, and 24 h post-administration and stored at −80° C. until further use. The mice were randomized to selected sampling times so that three blood samples and one terminal tissue collection were obtained from each.
Blood, tissue and fecal samples were processed by two methods to determine free HCQ and total HCQ. For the first method, HCQ was isolated by a simple extraction from the organs as described in Murry et al., J. Chrom. B., (2018) 1072, 320-327. The second method utilized base hydrolysis to release HCQ covalently bound to pCQ and subsequent HCQ extraction using solid phase extraction (SPE). Tissues and feces were homogenized in water prior to loading to the SPE cartridge. The calibration and quality control samples were separately prepared for HCQ and pCQ by spiking 10 μl of appropriate calibration stock of HCQ and pCQ, in 100 μl of blank biomatrix, and 10 μl of internal standard solution (1.0 μg/ml) added. For the study, 25 μl of blood and 100 μl of tissue homogenate were used. 400 μl of 1 M NaOH, 600 μl water and 100 μl methanol were added and the samples were incubated at 50° C. for 1 h to hydrolyze HCQ from the pCQ. Subsequently, 400 μ12% formic acid was added and the samples were vortexed for 30 s and centrifuged at 1301×g for 10 min. The SPE was carried out using Oasis HLB 3cc, 60 mg extraction Cartridge (Waters, Inc). Cartridges were pre-conditioned with 1 ml acetonitrile followed by 1 ml water. Samples were loaded to the cartridges and washed with 2 ml of aqueous 15% methanol and dried at high vacuum for 15 min. Analytes were eluted with 2 ml of acetonitrile. The eluents were collected in glass tubes and dried under nitrogen in water bath at 50° C. The dry residues were reconstituted in 400 μ1 0.1% formic acid:methanol mixture (60:40) and centrifuged at 13000×g and 10 μl supernatant was injected into the HPLC. The LC-MS/MS conditions were as previously described. (Murry et al., J. Chrom. B., (2018) 1072, 320-327.) The assay was linear over the range of 1 to 2000 ng/mL.
The pharmacokinetic parameters of HCQ and pCQ in blood and tissues were calculated using non-compartmental analysis with Phoenix WinNonlin 6.3 (Pharsight Corporation). The maximum concentration (Cmax) and time to Cmax (Tmax) were obtained from the visual inspection of the concentration-time plot. […]

[2] = Liver pharmacokinetics and distribution after single oral dose in colitis mice; assay type: in vivo; conditions: male, C57BL/6, mouse, single oral dose 30 mg/kg CQ equivalent, pCQ = total HCQ
Protocol: as §1, §2
(§3) Blood, tissue and fecal samples were processed by two methods to determine free HCQ and total HCQ. For the first method, HCQ was isolated by a simple extraction from the organs as described in Murry et al., J. Chrom. B., (2018) 1072, 320-327. The second method utilized base hydrolysis to release HCQ covalently bound to pCQ and subsequent HCQ extraction using solid phase extraction (SPE). Tissues and feces were homogenized in water prior to loading to the SPE cartridge. The calibration and quality control samples were separately prepared for HCQ and pCQ by spiking 10 μl of appropriate calibration stock of HCQ and pCQ, in 100 μl of blank biomatrix, and 10 μl of internal standard solution (1.0 μg/ml) added. For the study, 25 μl of blood and 100 μl of tissue homogenate were used. 400 μl of 1 M NaOH, 600 μl water and 100 μl methanol were added and the samples were incubated at 50° C. for 1 h to hydrolyze HCQ from the pCQ. […]
(§4) The pharmacokinetic parameters of HCQ and pCQ in blood and tissues were calculated using non-compartmental analysis with Phoenix WinNonlin 6.3 (Pharsight Corporation). […]

[3] = Colon pharmacokinetics and distribution after single oral dose in colitis mice; assay type: in vivo; conditions: male, C57BL/6, mouse, single oral dose 30 mg/kg CQ equivalent, pCQ = total HCQ
Protocol: as §1, §2, §3, §4

[4] = test system: mice with C. rodentium colitis; test: Therapeutic efficacy, colon histology (H&E) in C. rodentium colitis; assay type: in vivo, mouse; conditions: oral gavage every other day, 30 mg/kg HCQ equivalent, vs untreated
Protocol: Male C57BL/6 mice (6 weeks old, 18-20 g) were obtained from Charles River Laboratories and used for all in vivo studies. All animal experiments were conducted according to the protocol approved by the University of Nebraska Medical Center Institutional Animal Care and Use Committee. C. rodentium was used to induce colitis in mice. Bacterial glycerol stock was streaked onto LB agar plates and the bacterial colonies were grown overnight at 37° C. A single colony was inoculated into 5 ml of 2% LB broth and incubated at 37° C., 280 rpm overnight to obtain a saturated primary culture. […] Bacterial optical density was measured at 600 nm. […]
The longitudinally opened colons were rolled into a Swiss roll from distal to proximal end. […] The stained sections were evaluated by a pathologist without the knowledge of the identity of the samples using a light microscope. […] Crypt heights were measured using ImageJ software, with 10 measurements taken in distal colons of each mouse. Only well-oriented and intact crypts were measured. […] CC3 positive cells in the entire colon roll were counted at 20× magnification. Results were expressed as mean CC3 positive cells per entire colon roll. CD68 positive cells were counted in five randomly chosen areas in the colon roll at high power field (HPF). Results were expressed as mean of CD68 positive cells per HPF.

CD68 positive cells = test: Macrophage infiltration in the colon (CD68 staining); assay type: in vivo, mouse; conditions: oral gavage every other day, 30 mg/kg HCQ equivalent, day 14; vs untreated
Protocol: (§5) Colitis was induced as stated above and mice were randomly assigned to healthy, HCQ, and pCQ treatment groups (n=5) and untreated group (n=8). Starting day 1, the mice received oral gavage of either HCQ or pCQ every other day (30 mg/kg HCQ equivalent in 200 μl sterile deionized water). Untreated and healthy controls were administered 200 μl sterile deionized water. On day 14, the mice were sacrificed and the colons were harvested. The colon was opened longitudinally, cleaned of fecal matter, and excised into two parts along the length, which were stored accordingly for determination of cytokine mRNA levels by RT-PCR and histological analysis.

IL-6 = test: Colon cytokine mRNA by RT-PCR, IL-6; assay type: in vivo, mouse; conditions: seven oral doses over 14 days; vs untreated
Protocol: as §5
(§6) Colon samples from the therapeutic study were stored in RNAlater™ (Thermo Fisher Scientific Inc.) at 4° C. for 48 hours to allow sufficient time for tissue penetration followed by removal of excess solution. The tissues were then stored at −80° C. until further processing. […] The extracted mRNA was quantified using Nanodrop Onec UV-Vis spectrophotometer (Thermo Fisher Scientific Inc.). […] A volume corresponding to 1 μg of RNA as determined by UV spectrometer was used for cDNA synthesis. […] Results obtained from the RT-PCR were analyzed by Ct method to determine the fold change in gene expression.

IL-2 = test: Colon cytokine mRNA by RT-PCR, IL-2; assay type: in vivo, mouse; conditions: seven oral doses over 14 days; vs untreated
Protocol: as §5, §6

[5] = male, C57BL/6, mouse, whole blood, blood, single oral dose 30 mg/kg HCQ equivalent, colitis mice, pCQ = total HCQ

Cmax ([1]; blood, single oral dose 30 mg/kg HCQ equivalent, colitis mice, 30 mg/kg): 2,343 ± 46 ng/ml
AUC0-∞ ([1]; blood, single oral dose 30 mg/kg HCQ equivalent, colitis mice, pCQ = total HCQ, 30 mg/kg): 28,182 ± 1476^ h × ng/ml
bioavailability ([1]; male, C57BL/6, mouse, whole blood, 30 mg/kg, oral vs i.v., read-out: absolute bioavailability (oral to i.v.)): 80%
Cmax ([1]; male, C57BL/6, mouse, whole blood, po, 30 mg/kg, blood, single oral dose 30 mg/kg HCQ equivalent, colitis mice, read-out: Cmax): 2340 ng/mL
AUC(0-inf) ([1]; male, C57BL/6, mouse, whole blood, po, 30 mg/kg, blood, single oral dose 30 mg/kg HCQ equivalent, colitis mice, pCQ = total HCQ): 28.2 µg·h/mL
AUC(0-t) [1, 5]: 26.4 µg·h/mL
CL/F [1, 5]: 18.3 mL/min/kg
MRT [1, 5]: 6.8 ± 0.6 h
Tmax [1, 5]: 3.3 ± 1.2 h
half-life [1, 5]: 5.6 ± 1.9 h
AUC(0-inf) [2]: 176 µg·h/mL
AUC(0-t) [2]: 168 µg·h/mL
Cmax [2]: 12800 ng/mL
Tmax [2]: 2 h
AUC(0-inf) [3]: 209 µg·h/mL
AUC(0-t) [3]: 166 µg·h/mL
Cmax [3]: 10300 ng/mL
Tmax [3]: 8 h
SMILES: CCN(CCO)CCCC(C)Nc1ccnc2cc(Cl)ccc12 (centres unmarked) [HCQ, Hydroxychloroquine]
colon crypt length ([4]; day 14): significantly reduced
colon inflammation and epithelial injury (H&E) ([4]; sacrifice day 14): reduced the colon inflammation and eased the epithelial injury
macrophage infiltration (CD68 positive cells per HPF) (CD68 positive cells): statistically significant reduction
colon IL-6 expression (mRNA) (IL-6): statistically significant reduction
colon IL-2 expression (mRNA) (IL-2): upregulated
